The data set can be described thus: Solubility of sirolimus in solvents / dispersion media. It counts as physicochemical. Here is the method:
Solution 524 is a homogeneous mixture in which therapeutic substance 112 dissolves within a solvent or a solvent mixture. In one embodiment, solution 524 includes a high-capacity solvent 528 which is an organic solvent that has a high capacity to dissolve therapeutic substance 112. High capacity as utilized herein is defined as an ability to dissolve therapeutic substance 112 at concentrations greater than 500 mg of substance per milliliter of solvent. Examples of high capacity drug dissolving solvents for sirolimus and similar substances include but are not limited to tetrahydrofuran (THF), di-chloromethane (DCM), chloroform, and di-methyl-sulfoxide (DMSO). In addition to the high-capacity solvent, solution 524 may include an excipient 526 in order to assist in drug elution. In one embodiment, excipient 526 may be a surfactant such as but not limited to sorbitan fatty acid esters such as sorbitan monooleate and sorbitan monolaurate, polysorbates such as polysorbate 20, polysorbate 60, and polysorbate 80, cyclodextrins such as 2-hydroxypropyl-beta-cyclodextrin and 2,6-di-O-methyl-beta-cyclodextrin, sodium dodecyl sulfate, octyl glucoside, and low molecular weight poly(ethylene glycol)s. In another embodiment, excipient 526 may be a hydrophilic agent such as but not limited to salts such as sodium chloride and other materials such as urea, citric acid, and ascorbic acid. […]

The structures appear in SMILES notation.

Regarding `CO[C@H]1C[C@@H]2CC[C@@H](C)[C@@](O)(O2)C(=O)C(=O)N2CCCC[C@H]2C(=O)O[C@H]([C@H](C)C[C@@H]2CC[C@@H](O)[C@H](OC)C2)CC(=O)[C@H](C)/C=C(\C)[C@@H](O)[C@@H](OC)C(=O)[C@H](C)C[C@H](C)/C=C/C=C/C=C/1C` [sirolimus], the solubility in hexane result was “insoluble”.

The record behind these values is patent publication US8828474B2, “Apparatus and methods for loading a drug eluting medical device” (Medtronic Vascular, Inc., priority 2009, dated 2014).
